Laboratory results as given in patent US10704076B2, “Multi-tiered high through-put screen for compounds effective against bacterial biofilm and compounds effective for inhibiting and eradicating bacterial biofilm” (University of Cincinnati, priority 2013, dated 2020).

How the values were obtained:
A. baumannii biofilm [1] = assay: CLSM, co-culture of bacteria with compound (inhibition of biofilm formation); format: cell-based, Acinetobacter baumannii
Method: (§1) Broad spectrum agents (effective against all three bacterial species) and single agent compounds identified as HTS hits were investigated with CLSM confirmation of inhibition of biofilm formation (culture of bacteria with compounds) or killing of bacteria residing within an established biofilm (compound addition after culturing biofilm). To evaluate inhibition of P. aeruginosa biofilms, bacteria were sub-cultured into 10% L-broth and grown at 37° C. until the OD600 reached 0.25. The bacteria were further diluted 1:100 into a modified 0.5×M63 minimum media (50 mM KH2PO4, 7.5 mM (NH4)2SO4, 9 μM FeSO4, 0.5% casamino acids, 0.2% glucose, and 1 mM MgSO4). A. baumannii biofilms were also grown in 10% L-broth until the OD600 reached 0.05 but diluted 1:10 into 5% L-broth media. S. epidermidis biofilm cultures were grown. Briefly, the bacteria were grown in TSB until the OD600 reached 0.75, and a 1:100 dilution of the bacteria was sub-cultured into phosphate buffered saline (PBS). All of the biofilm bacterial cultures were grown in 96-well plate chambers (MatTek Corp., Ashland, Mass.) in the presence of 10 μM of each compound or DMSO as a control and incubated for 18 hrs at 37° C. To investigate the ability of compounds to kill bacteria within pre-existing biofilms, biofilms were grown under the same conditions, but without test compound. These biofilms were washed once with PBS and incubated an additional 24 hr at 37° C. in PBS containing 300 μM of each compound. All biofilm cultures were then washed twice with 100 μL of PBS and stained using the LIVE/DEAD® BacLight™ Bacterial Viability Kit (Invitrogen). Finally, biofilm images were obtained using a Zeiss LSM510 META Confocal Microscope (Carl Zeiss, Inc., Germany). A 488 nm laser was used in conjunction with a Plan-Apochromat 100×/1.4 Oil DIC objective. Z-stacks were 8 bit and measured 127.3 μm×127.3 μm×16.0 μm in size. The filters used were 505-530 and 620-680 IR, as the excitation and emission wavelengths for red fluorescence are 490 nm and 635 nm, respectively, and 480 nm and 500 nm for green fluorescence. Three dimensional images were generated using the “Projection” ability on LSM Image Browser software (v.1.4.0.121) or Zeiss LSM image browser software version 3.5 (Carl Zeiss, Inc., Germany), and Live/Dead calculations were conducted based upon these images using MacBiophotonics ImageJ following the guidelines in the cell counting guide by C. Labno {Rasband, 1997-2011 #25; Labno, #2} at the University of Chicago Integrated Light Microscopy Core. The thickness of the biofilm was calculated using Comstat software. A hit was defined as a >50% dead to live ratio.
(§2) The CLSM experiment was performed in one or two or all bacteria used in this study depending on its activity. For the validation of HTS hits, 10 μM of compound was added to each bacterial suspension and the resulting biofilm stained with LIVE/DEAD® BacLight™ Bacterial Viability Kit. The images were analyzed to determine the live and dead ratios of biofilm bacteria, the thickness of biofilms, and structural attributes of biofilms.

A. baumannii = assay: HTS total bacterial growth assay (optical density OD560); format: cell-based, Acinetobacter baumannii; conditions: Acinetobacter baumannii, 10 point dose-response 0.1-50 μM, NS* = no sigmoid curve observed, read-out: Total Bacteria Growth AC50
Text: (§3) Each HTS tier consisted of: (i) primary screening, (ii) confirmation screening and (iii) dose-response curve screening. Each tier of HTS included three distinct biological process assays. The first assay was an optical density measurement of bacteria growth in the presence of each compound reported as a total bacteria growth. In the second assay, resazurin solution was used as an indicator of metabolic activity to measure the live bacteria in the biofilms, reported as live biofilm. The final assay was crystal violet staining, which indicated the amount of biofilm formation and the effect of each compound on this process, reported as total biofilm formation.
(§4) Briefly, stationary phase bacteria grown in L-broth were diluted 1:200 into fresh L-broth and 50 μM of each test compound. After 20-24 hours, the optical density (OD560) of each suspension was measured using Zeiss Plate::Vision with a 560 BP filter (560 nm, 2.5% light intensity, 1 mm focus to bottom of plate, and exposure time of 100 ms). To measure bacterial viability in the biofilm, 50 μl of a 5 mg/ml resazurin solution in L-broth was added to each well after washing 3 times with 50 μl of PBS. The plates were then incubated at 37° C. for 30 or 180 min for A. baumannii and P. aeruginosa biofilms, respectively. Fluorescence was measured using Zeiss Plate::Vision at excitation and emission wavelengths of 535 and 580 nm, 100 ms exposure time, 2.5% intensity and a 2 mm focus to the bottom of the biofilms. To assess biofilm formation, plates were washed 3 times with PBS and then 50 μl of 0.01% of crystal violet was added to each well to assess bacterial biofilm formation as described in a similar borosilicate tube assay by O'Toole and Kolter. After incubation at room temperature for 30 min and removal of the crystal violet solution by washing with PBS, 95% ethanol was added to solubilize the crystal violet followed by incubation for 20 min at room temperature. Finally, the optical density of each plate was determined using measured by Zeiss Plate::Vision using the same settings used to measure total bacterial growth. These 3 steps were used in each of the three tiers for the HTS process: (i) single point primary screening at 10 μM, (ii) triplicate confirmation of hits from (i) at 10 μM and (iii) determination of AC50 values in 10 point dose-response at a concentration range of 0.1-50 μM) in hits from (ii). The AC50 represents the concentration of compound that inhibits 50% of bacterial growth, bacterial viability, or biofilm formation. Genedata Screener® Assay Analyzer Software (Ver. 9.0.0 Standard) was used to analyze data from all assay tiers. Compounds with an AC50 of less than 20 μM in one of the biological assays from the dose response screen were subject to additional investigation.

P. aeruginosa = assay: as above; format: cell-based, Pseudomonas aeruginosa; conditions: Pseudomonas aeruginosa, 10 point dose-response 0.1-50 μM, read-out: Total Bacteria Growth AC50
Text: as §3, §4

A. baumannii biofilm [2] = assay: HTS live biofilm assay (resazurin metabolic activity); format: cell-based, Acinetobacter baumannii; conditions: Acinetobacter baumannii, 10 point dose-response 0.1-50 μM
Text: as §3, §4

P. aeruginosa biofilm [3] = assay: as above; format: cell-based; conditions: Pseudomonas aeruginosa, 10 point dose-response 0.1-50 μM
Text: as §3, §4

P. aeruginosa biofilm [4] = assay: CLSM, co-culture of bacteria with compound (inhibition of biofilm formation); format: cell-based, Pseudomonas aeruginosa
Method: as §1, §2

P. aeruginosa biofilm [5] = assay: HTS total biofilm formation assay (crystal violet staining); format: cell-based, Pseudomonas aeruginosa; conditions: Pseudomonas aeruginosa, 10 point dose-response 0.1-50 μM
Text: as §3, §4

A. baumannii biofilm [6] = assay: as above; format: cell-based, Acinetobacter baumannii; conditions: Acinetobacter baumannii, 10 point dose-response 0.1-50 μM
Text: as §3, §4

[7] = test system: P. aeruginosa established biofilm; assay: CLSM, effect of compound on the pre-existing biofilm; format: cell-based, Pseudomonas aeruginosa; conditions: 300 μM, 24 hr
Method: as §1, §2

[8] = test system: S. epidermidis established biofilm; assay: Killing of established Se biofilm by compounds Se-1 through Se-16; format: cell-based, Staphylococcus epidermidis; conditions: 300 μM compound, X / O
Text: This Example illustrates efficacy of compounds Se-1 through Se-16 at inhibiting S. epidermidis biofilm formation and/or killing established S. epidermidis biofilms. Detailed methods, materials and data are set forth in Shea, Chloe, U of Cincinnati Masters Thesis “Effectiveness of Novel Compounds at Inhibiting and Killing P. aeruginosa and S. epidermidis Biofilms” published on Mar. 17, 2013, the entire disclosure of which is incorporated herein by this reference. FIG. 8 illustrates effective inhibition of Se biofilm formation. For these experiments, Se was co-cultured with 10 μM of compounds Se-1 through Se-16 (see Table 5 for compound names and Table 6 for compound structures). A-H represents the top view of the Se biofilm, while the sagittal view is shown in I-P. The control Se biofilm is shown in A/I. Se biofilm formation in the presence of 10 μM of compound Se-3, Se-4, Se-13, Se-14, Se-15 or Se-16 as shown in B/J, C/K, D/L, E/M, F/N, G/O, and H/P, respectively. FIG. 9 illustrates effective killing of established Se biofilm. For this experiment, Se biofilms were treated with 300 μM of compounds Se-1 through Se-16. A-H represents the top view of the Se biofilm, while the sagittal view is shown in I-P. The control Se biofilm is shown in A/I. Effective killing was defined as >50% dead bacteria.

[9] = CLSM, 10 μM compound, 18 hrs, Y / —

## NC1=CC(=O)c2nonc2C1=O [Compound 2, 5-amino-2,1,3-Benzoxadiazole-4,7-dione]
A. baumannii biofilm [1]; 10 μM
  killing of residential bacteria, co-culture (CLSM, in words): effectively killed the residential bacteria
A. baumannii biofilm [1]; [9]
  Co-culture of bacteria with compound: Killing: Y (A hit was defined as a >50% dead to live ratio)
A. baumannii
  AC50: 2.21 µM
P. aeruginosa
  AC50: 9.09 µM
A. baumannii biofilm [2]
  AC50: 3.21 µM
P. aeruginosa biofilm [3]
  AC50: 15.2 µM
P. aeruginosa biofilm [4]; 10 μM
  killing of residential bacteria, co-culture (CLSM, in words): effectively killed the residential bacteria
P. aeruginosa biofilm [4]; [9]
  Co-culture of bacteria with compound: Killing: Y (A hit was defined as a >50% dead to live ratio)
P. aeruginosa biofilm [5]
  AC50: 1.43 µM
A. baumannii biofilm [6]
  AC50: 3.15 µM

## CC(C)(C)n1cc(C(=O)O)c(=O)c2cc(F)c(N3CCN(C(=S)S)CC3)nc21 [Compound 9, 1-(1,1-dimethylethyl)-1,4-dihydro-6-fluoro-4-oxo-7-(4-dithiocarboxypiperazin-1-yl)-1,8-Naphthyridinyl-3-carboxylic acid]
P. aeruginosa
  AC50: 27.7 µM
P. aeruginosa biofilm [3]
  AC50: 8.14 µM
P. aeruginosa biofilm [4]; CLSM, 10 μM compound, 18 hrs
  Co-culture of bacteria with compound: Inhibit biofilm formation: failed to inhibit biofilm formation
P. aeruginosa biofilm [5]
  AC50: 3.6 µM
[7]
  killing of established P. aeruginosa biofilm (CLSM, in words): failed to kill bacteria within a biofilm

## CN(C)c1ccc(CN2CCN(C(=O)Nc3ccc(C(F)(F)F)cc3)CC2)cc1 [Se3, 4-{[4-(dimethylamino]phenyl]methyl}-N-[4-(trifluoromethyl]phenyl]piperazine-1-carboxamide]
[8]
  Killing: X (Effective killing was defined as >50% dead bacteria)

## CCCCCCCCCCCCOCC[N+](CCO)(CCO)Cc1ccccc1 [Se4, 2-dodecoxyethyl-bis(2-hydroxyethyl)-(phenylmethyl)ammonium]
[8]
  Killing: X (Effective killing was defined as >50% dead bacteria)

## O=C(Nc1ccc(Cl)cc1)Nc1nnc(C(F)(F)F)s1 [Se10, 1-(4-chlorophenyl)-3-[5-(trifluoromethyl)-1,3,4-thiadiazol-2-yl]urea]
[8]
  Killing: X (Effective killing was defined as >50% dead bacteria)

## N#C/C(=N\Nc1ccc(OC(F)(F)F)cc1)C(=O)c1cccs1 [Se12, (2E]-3-keto-3-(2-thienyl]-2-[[4-(trifluoromethoxy)phenyl]hydrazono]propionitrile]
[8]
  Killing: X (Effective killing was defined as >50% dead bacteria)

## CN(C)c1ccc(C(=C2C=CC(=[N+](C)C)C=C2)c2ccc(N(C)C)cc2)cc1 [Se13, [4-[bis(4-dimethylaminophenyl]methylene]-1-cyclohexa-2,5-dienylidene]-dimethyl-ammonium]
[8]
  Killing: X (Effective killing was defined as >50% dead bacteria)

## CCc1c(C)[nH]c(CC(=O)O)c1C [Se14, 2-(4-ethyl-3,5-dimethyl-1H-pyrrol-2-yl]acetic acid]
[8]
  Killing: X (Effective killing was defined as >50% dead bacteria)

## O=C(Nc1cccc(F)c1)c1ccccc1NS(=O)(=O)c1ccc(Br)cc1 [Se15, 2-[(4-bromophenyl)sulfonylamino]-N-(3-fluorophenyl)benzamide]
[8]
  Killing: X (Effective killing was defined as >50% dead bacteria)
